Literature values, collected in paper PMC10582684 (RSC Advances, 2023).
Like-named read-outs stand apart in the source and are kept apart here.

Experiments:
[1] = oligopeptides from ginkgo seed and bighead carp, high content of Pro
[2] = literature comparison
[3] = peptides from walnut protein with Lys in C-terminal tripeptide

## PKPP
ACE; [3]
  Inhibiting ability on ACE (in words): excellent inhibiting ability on ACE

## YIRLHF
ACE; peptide from bighead carp protein
  Inhibitory kinetics on ACE: competitive inhibitory kinetics

## LSMSFPPF
[1]
  Stability against gastrointestinal enzymic digestion (in words): excellent stability

## VPKIPPP
[1]
  Stability against gastrointestinal enzymic digestion (in words): excellent stability

## PPSEPTKL
[1]
  Stability against gastrointestinal enzymic digestion (in words): excellent stability

## PPKP
ACE; [3]
  Inhibiting ability on ACE (in words): excellent inhibiting ability on ACE

## O=C(O)CN(CCN(CC(=O)O)CC(=O)O)CC(=O)O [ethylenediamine tetraacetic acid]
[2]
  Chelating ability towards zinc ions: 57.17 mg/g

## TGLL
[2]
  Chelating ability towards zinc ions: 2.27 mg/g

## WNGPKGV
ACE; peptide from corn protein with Lys in C-terminal tripeptide
  Inhibiting ability on ACE (in words): excellent inhibiting ability on ACE
